Measured values published in patent US9249147B2, “Tyrosine kinase inhibitors” (CHEMBRIDGE CORPORATION, priority 2008, dated 2016).
Like-named read-outs stand apart in the source and are kept apart here.

Key:
IGF1R = target: T1, IGF1R (Homo sapiens, UniProt P08069); experiment: IGF1R kinase assay; type: biochemical
T1 construct: 6×His- or GST-tagged kinase domain fragments of the corresponding RTKs expressed in baculovirus system; host or cells: baculovirus system
Outline: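 The AlphaScreen PT66 format of the NPM-ALK assay was applied with minor modifications to commercial recombinant His/GST-tagged kinase domains. Compound (0.078125–40 μM) was incubated 30 min at RT with 10 μM ATP and biotinylated poly-GT in Tris pH 7.5/MgCl2/MnCl2/DTT buffer, then beads 60 min. Read at 520–680 nm; IC50 and Ki derived.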

H929 = experiment: Cell line IC50, MM (IGF1R) H929; type: cell-based; settings: Homo sapiens, NCI-H929; Table 2, cell line
UConn = experiment: Cell proliferation inhibition, ALCL line UConn; type: cell-based; settings: Table 2, cell line; read-out: IC50 ALCL (ALK) Uconn
Text: (§1) Cell proliferation inhibition assays were run for compound (II) with the five target NPM-ALK-dependent ALCL cell lines (Karpas 299, SuDHL-1, JB6, SupM2, UConn) and 12 unrelated cell lines (HEK293, CHO-K1, MCF7, HepG2, H292, H520, H1581, H596, H522, CHA-GO-K1, UMC-11, SK-MES1). […] The pronounced target cell-killing effect is also observed (molecular mechanisms to be determined).

JB6 = experiment: Cell proliferation inhibition, ALCL line JB6; type: cell-based; settings: Table 2, cell line, read-out: IC50 ALCL (ALK) JB6
Text: as §1

ALK = ALK (Homo sapiens, UniProt Q9UM73); experiment: ALK kinase assay (Kinase-Glo / AlphaScreen, purified NPM-ALK); type: biochemical; set-up: fused to the complete intracytoplasmic portion of ALK containing the functional tyrosine kinase domain; 6xHis; made in house; host or cells: insect cells; the other entry of the earlier key: NPM1 (P06748, Nucleophosmin)
Sequence of ALK (Q9UM73 with tags, fused parts or gaps): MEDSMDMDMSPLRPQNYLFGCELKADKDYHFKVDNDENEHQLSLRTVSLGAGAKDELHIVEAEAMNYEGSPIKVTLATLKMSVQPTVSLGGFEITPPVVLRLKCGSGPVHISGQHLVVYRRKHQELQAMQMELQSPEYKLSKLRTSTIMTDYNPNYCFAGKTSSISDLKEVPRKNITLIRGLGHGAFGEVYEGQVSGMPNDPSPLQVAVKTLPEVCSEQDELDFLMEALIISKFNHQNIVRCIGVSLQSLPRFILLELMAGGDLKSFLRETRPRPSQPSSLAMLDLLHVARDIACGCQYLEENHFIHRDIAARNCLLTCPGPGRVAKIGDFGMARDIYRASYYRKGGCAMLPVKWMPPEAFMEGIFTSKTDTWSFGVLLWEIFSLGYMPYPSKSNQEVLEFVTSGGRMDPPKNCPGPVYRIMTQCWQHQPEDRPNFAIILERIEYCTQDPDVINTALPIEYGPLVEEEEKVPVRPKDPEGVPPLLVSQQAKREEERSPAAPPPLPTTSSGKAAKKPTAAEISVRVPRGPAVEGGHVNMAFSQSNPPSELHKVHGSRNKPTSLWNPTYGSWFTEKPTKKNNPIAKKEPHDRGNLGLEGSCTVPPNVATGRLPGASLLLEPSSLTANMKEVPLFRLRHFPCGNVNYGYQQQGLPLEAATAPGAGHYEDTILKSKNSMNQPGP

Karpas299 = experiment: Cell proliferation inhibition, ALCL line Karpas299; type: cell-based; settings: Homo sapiens, KARPAS-299; Table 2, cell line; read-out: IC50 ALCL (ALK) Karpas299
Text: The IL-3-dependent lymphoid cell line BaF3 or BaF3 rendered IL-3-independent by engineered expression of NPM-ALK were used in parallel to test each candidate inhibitor. Control wells contained DMSO solvent without test compound. Specific inhibition of ALK signaling is indicated in the assay by impairment of NPM-ALK-expressing BaF3 cell growth without alterations in the growth of parental BaF3. This colorimetric assay of cell proliferation and viability is based upon reduction of the yellow monotetrazolium salt XTT to a water-soluble orange formazan dye, a reaction catalyzed by mitochondrial dehydrogenases in living cells only (Cell Proliferation Kit II, Cat. #1 465 015, Roche Biochemicals). In addition to testing compounds for their ability to impair the growth of BaF3 cells engineered to express NPM-ALK, the NPM-ALK-positive human lymphoma cell line Karpas-299 (Deutsche Sammlung von Mikroorganismen and Zellkulturen GmbH (DSMZ) no. ACC 31), the human BCR-ABL-positive chronic myeloid leukemia cell line K562 (American Type Culture Collection (ATCC) no. CCL-243), and the human T-cell leukemia line Jurkat (DSMZ no. ACC 282) were tested in these assays.
Each compound stock in 100% DMSO was first diluted using 8% DMSO/culture medium to produce a working stock of 250 μM compound. This working stock was then used to perform serial 1:1 dilutions (i.e., 125 μM, 62.5 μM, 31.25 μM, 15.625 μM, 7.8125 μM, and 3.90625 μM) using DMSO-free culture medium. Twenty (20) μL of each of these dilutions was then added to the cells (2×10^4 cells in 80 μL culture medium per 96-well) to obtain the final test compound concentrations (i.e., 25 μM, 12.5 μM, 6.25 μM, 3.125 μM, 1.5625 μM, and 0.78125 μM).
as §1

WI38 = experiment: Cell line IC50, control WI38; type: cell-based; settings: Homo sapiens, WI-38; Table 2, cell line
TRKA = TRKA (Homo sapiens, UniProt P04629); experiment: TRKA kinase assay; type: biochemical; set-up: 6×His- or GST-tagged kinase domain fragments of the corresponding RTKs expressed in baculovirus system; host or cells: baculovirus system; settings: Table 1; read-out: TRKA IC50
Sequence of TRKA (P04629 510-781 limits assumed): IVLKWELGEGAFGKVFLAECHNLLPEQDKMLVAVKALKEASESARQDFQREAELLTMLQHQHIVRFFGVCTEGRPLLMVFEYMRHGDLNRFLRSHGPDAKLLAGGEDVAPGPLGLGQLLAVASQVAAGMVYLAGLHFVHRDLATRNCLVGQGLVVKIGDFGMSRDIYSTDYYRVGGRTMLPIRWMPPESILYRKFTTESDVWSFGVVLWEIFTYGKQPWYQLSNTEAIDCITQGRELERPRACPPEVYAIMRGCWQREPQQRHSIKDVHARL

IRK = target: T2, IRK (Homo sapiens, UniProt P06213); experiment: IRK (insulin receptor kinase) assay; type: biochemical; settings: Table 1; read-out: IRK IC50
T2 construct: 6×His- or GST-tagged kinase domain fragments of the corresponding RTKs expressed in baculovirus system; host or cells: baculovirus system
T2 sequence (P06213 1023-1298 limits assumed): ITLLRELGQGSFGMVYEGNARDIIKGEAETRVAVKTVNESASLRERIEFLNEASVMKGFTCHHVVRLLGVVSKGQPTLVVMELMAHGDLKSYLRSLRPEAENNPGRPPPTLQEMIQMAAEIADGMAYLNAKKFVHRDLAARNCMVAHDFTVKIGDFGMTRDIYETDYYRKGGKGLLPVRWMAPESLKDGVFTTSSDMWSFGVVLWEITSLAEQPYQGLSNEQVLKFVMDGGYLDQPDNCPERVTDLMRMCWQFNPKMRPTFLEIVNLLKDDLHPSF
Method: To determine inhibition of several tyrosine kinases, such as IGF1R, InsR, Alk, TrkA and Jak2, kinase assays are conducted using either Kinase-Glo (Promega) or AlphaScreen (PerkinElmer) kinase assay platforms. The Kinase-Glo Luminescent Kinase Assay is a homogeneous method for measuring kinase activity by determining the amount of ATP remaining after a kinase reaction. The luminescent signal is proportional to the amount of ATP and inversely proportional to the amount of kinase activity. Tyrosine kinase PT66 AlphaScreen Assay is a high-sensitivity homogeneous, anti-phosphotyrosine antibody-mediated luminescent proximity method measuring incorporation of phosphate in synthetic poly(Glu-Tyr) substrate. The kinase preparations used consist of purified recombinant, 6×His- or GST-tagged kinase domain fragments of the corresponding RTKs expressed in baculovirus system.
Compounds with a range of concentrations 40 μM, 20 μM, 10 μM, 5 μM, 2.5 μM, 1.25 μM, 0.625 μM, 0.3125 μM, 0.15625 μM and 0.078125 μM were incubated with NPM-ALK, which was produced in insect cells as a 6×HIS-tagged fusion protein and purified using nickel-charged resin chromatography, for 30 minutes at RT in the presence of 10 μM ATP and 7.0 ng biotinylated poly-GT. A 1:1 mixture of […] and donor beads was then added to the reaction and incubated for an additional 60 minutes at RT. The assay was conducted on a MultiPROBE liquid handling workstation (PerkinElmer) in a 384-well plate format with a total reaction volume of 40 μL per well. Working stocks of all compounds were dissolved in 100% DMSO and serial dilutions of the compounds were performed using kinase buffer (50 mM Tris-HCl (pH 7.5), 5 mM MgCl2, 5 mM MnCl2, 2 mM DTT (added freshly before use), 0.01% Tween-20) containing 5% DMSO. […] Data were collected as optical readings at 520-680 nm on a Fusion™ microplate analyzer (PerkinElmer), and IC50 and Ki values calculated using PRISM3.0 software (GraphPad Software, Inc., San Diego, Calif.). The same assay was also used with minor modifications to assess the IC50 and Ki values for selected compounds against five other tyrosine kinases (IRK, IGF1R, Flt3, Abl, Src), all of which were purchased from commercial vendors. PolyGT-Biotin was bought from CIS Biointernational Cat. #61GT0BLD; ATP—from Sigma Cat. # A7699; sodium orthovanadate—from Sigma Cat. #S-6508; phosphotyrosine (PT66) assay kit from PerkinElmer Cat. #6760602M; automated workstation tips (20 μL): PerkinElmer Cat. #6000657; and OptiPlate-384 (white)—from PerkinElmer Cat. #6007299.

[1] = Table 2, read-out: Enzymatic IGF1R IC50
[2] = Table 2, read-out: Enzymatic ALK IC50

T1 sequence (P08069 999-1274 limits assumed): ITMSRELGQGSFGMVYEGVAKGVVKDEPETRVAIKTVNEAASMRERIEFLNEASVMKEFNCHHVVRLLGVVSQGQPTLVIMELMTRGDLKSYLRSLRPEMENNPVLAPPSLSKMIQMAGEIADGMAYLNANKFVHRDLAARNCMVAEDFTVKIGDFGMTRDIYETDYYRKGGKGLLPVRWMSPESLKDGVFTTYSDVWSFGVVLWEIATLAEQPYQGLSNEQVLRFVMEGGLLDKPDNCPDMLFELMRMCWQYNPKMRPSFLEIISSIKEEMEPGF

SMILES	IC50 (IGF1R; [1]) [nM]	IC50 (H929) [nM]	IC50 (ALK; [2]) [nM]	IC50 (Karpas299) [nM]	IC50 (IGF1R; Table 1, read-out: IGF1R IC50) [nM]	IC50 (TRKA) [nM]	IC50 (IRK) [nM]	IC50 (ALK; Table 1, read-out: ALK IC50) [nM]	IC50 (UConn) [nM]	IC50 (JB6) [nM]	IC50 (WI38) [nM]
Cc1ccc(F)cc1C[C@H](C)Nc1cc[nH]c(=O)c1-c1nc2cc3c(cc2[nH]1)C(=O)N(CCN1CCCC1)C3 [drawing 350]	100 to 250	250 to 1000	< 10	< 10					10 to 100	< 10	> 1000
O=C1NC(=O)c2cc3[nH]c(-c4c(NC[C@@H](O)c5cccc(Cl)c5)cc[nH]c4=O)nc3cc21					250 to 1000	100 to 250	> 1000	> 1000			
C[C@@H](Cc1c(F)c(F)cc(F)c1F)Nc1cc[nH]c(=O)c1-c1nc2cc3c(cc2[nH]1)CN(CCN1CCCC1)C3=O [drawing 352]	> 1000	250 to 1000	< 10	< 10					10 to 100	< 10	> 1000
Cc1ccc(F)cc1C[C@H](C)Nc1cc[nH]c(=O)c1-c1nc2cc3c(cc2[nH]1)C(=O)N(CCN1CCCC1)C3 [drawing 303]					100 to 250	< 10	100 to 250	< 10			

Now from value to compound, other results behind:

IC50 (IGF1R; [1]) [nM]	IC50 (H929) [nM]	IC50 (ALK; [2]) [nM]	IC50 (Karpas299) [nM]	IC50 (IGF1R; Table 1, read-out: IGF1R IC50) [nM]	IC50 (TRKA) [nM]	IC50 (IRK) [nM]	IC50 (ALK; Table 1, read-out: ALK IC50) [nM]	SMILES	IC50 (UConn) [nM]	IC50 (JB6) [nM]	IC50 (WI38) [nM]
> 1000	250 to 1000	10 to 100	10 to 100					Cc1ccc(F)cc1C[C@H](C)Nc1cc[nH]c(=O)c1-c1nc2cc3c(cc2[nH]1)CN(CCN1CCC[C@H]1C)C3=O [drawing 354]	10 to 100	10 to 100	> 1000
250 to 1000	250 to 1000	10 to 100	10 to 100					C[C@@H](Cc1cc(F)ccc1Br)Nc1cc[nH]c(=O)c1-c1nc2cc3c(cc2[nH]1)CN(CCN1CCCC1)C3=O [drawing 359]	100 to 250	10 to 100	> 1000
100 to 250	250 to 1000	< 10	< 10					Cc1ccc(F)cc1C[C@H](C)Nc1cc[nH]c(=O)c1-c1nc2c(C)c3c(cc2[nH]1)CN(CCN1CCCC1)C3=O [drawing 351]	10 to 100	< 10	> 1000
> 1000	250 to 1000	< 10	< 10					C[C@@H]1CCCN1CCN1Cc2cc3[nH]c(-c4c(N[C@@H](C)Cc5cc(F)cc(F)c5F)cc[nH]c4=O)nc3cc2C1=O [drawing 353]	10 to 100	< 10	> 1000
				100 to 250	< 10	100 to 250	< 10	Cc1ccc(F)cc1C[C@H](C)Nc1cc[nH]c(=O)c1-c1nc2cc3c(cc2[nH]1)CN(CCN(C)C)C3=O [drawing 316]			
